Data as given in article PMC8284473, “Preliminary Characterization of NP339, a Novel Polyarginine Peptide with Broad Antifungal Activity” (Antimicrobial Agents and Chemotherapy, 2021).

What was measured:
human PBMCs = test: NP339 cytotoxicity, LIVE/DEAD staining; assay type: cell-based; details: human PBMCs 5 × 10^5 cells/well, 2 h, 37°C, RPMI 1640; concentrations hundreds of folds above antifungal; n = 2
Experimental: PBMCs were isolated from fresh human whole blood using Leucosep tubes (Greiner Bio-One), according to the manufacturer’s instructions. The cells were suspended in RPMI 1640 medium (5 × 10^6 cells/ml) and transferred to 96-well plate (5 × 10^5 cells/well). NP339 solutions were prepared in prewarmed RPMI 1640 medium and added to the cell suspension. The plates were incubated at 37°C under 5% CO2 for 2 h. Toxicity was determined using the Molecular Probes LIVE/DEAD Viability/Cytotoxicity kit (Fisher Scientific UK, Ltd.). As the kill control, 0.1% (vol/vol) Triton X-100 was used. Untreated cells were the live control.

[1] = Tolerability in mouse models of infection; assay type: in vivo; details: at the therapeutic doses and duration of therapy used
Experimental: In all experiments, the animals were housed 4 or 5/cage in sterilized individual ventilated cages exposing the mice at all times to HEPA-filtered sterile air. Food and water were available ad libitum, and sterile aspen chip bedding was changed at least once weekly. The room temperature was 22 ± 1°C, with a relative humidity of 60% and maximum background noise of 56 dB. Mice were exposed to 12-h light/dark cycles. Before the experiments, the animals were randomly divided into groups. After the experiments, the animals were sacrificed by humane euthanasia by delivering 0.5 ml of 200 mg/ml pentobarbital solution via intraperitoneal injection. For quantification of fungal burden, samples were diluted appropriately and then quantitatively cultured on to SAB containing 0.05 mg/ml chloramphenicol and incubated at 37°C for 24 to 48 h before enumeration.
Male CD1 mice (n = 24 mice, 6 to 8 weeks of age, average weight of 23.5 g) were obtained from Charles River, Margate, United Kingdom. […] The mice were culled 29 h postinfection, and fungal kidney burdens were determined by plating as previously described.
Female BALB/c mice (n = 24 mice, 6 to 8 weeks of age, weight of 16 to 18 g) were obtained from Charles River, Margate, United Kingdom. […] At 3 days postinfection, fungal burdens in vaginal lavage samples were determined as described above. […]

human whole blood = human whole blood exposed to the peptide; data not shown
[2] = system: A549 epithelial lung cell line; test: NP339 cytotoxicity, LIVE/DEAD staining; assay type: cell-based, human; details: A549 monolayer, 3 h, 37°C, RPMI 1640; concentrations hundreds of folds above antifungal; n = 2
Experimental: Lung epithelial cells (A549 cells; ATCC [distributed by LGC Promochem, Teddington, United Kingdom]) were cultured in a 96-well plate in Ham’s F-12K medium (Fisher Scientific UK, Ltd.) supplemented with 10% (vol/vol) fetal bovine serum. The cells were incubated under 5% CO2 at 37°C until 90% confluent. NP339 solutions and 0.25% SDS (the kill control) were prepared in prewarmed RPMI 1640 medium. Once the cells reached 90% confluence, the culture medium was removed from the 96-well plate, taking care not to disturb the cells, and 100 μl of NP339 solution was added to the cell monolayer. The plates were incubated at 37°C under 5% CO2 for 3 h. Toxicity was determined using the Molecular Probes LIVE/DEAD Viability/Cytotoxicity kit, as per the manufacturer’s instructions. As the kill control, 0.25% (wt/vol) SDS was used. Untreated cells were the live control (cells incubated with the medium).

N=C(N)NCCC[C@H](NC(=O)[C@H](CCCNC(=N)N)NC(=O)[C@H](CCCNC(=N)N)NC(=O)[C@H](CCCNC(=N)N)NC(=O)[C@H](CCCNC(=N)N)NC(=O)[C@H](CCCNC(=N)N)NC(=O)[C@H](CCCNC(=N)N)NC(=O)[C@H](CCCNC(=N)N)NC(=O)[C@H](CCCNC(=N)N)NC(=O)[C@H](CCCNC(=N)N)NC(=O)[C@H](CCCNC(=N)N)NC(=O)[C@H](CCCNC(=N)N)NC(=O)[C@@H](N)CCCNC(=N)N)C(=O)O [NP339]
Cytotoxicity (live/dead cell ratio) (human PBMCs): not toxic | Tolerability [1]: well tolerated | Nonspecific immune response (cytokine measurements) (human whole blood): did not elicit a nonspecific immune response | Cytotoxicity (live/dead cell ratio) [2]: not toxic
